From ChEMBL document CHEMBL3880421, “Indazole compounds and pharmaceutical compositions for inhibiting protein kinases, and methods for their use” (2003)

Experiments:
[1] = Antiproliferative activity against VEGF-stimulated HUVEC cells assessed as reduction in cell viability at 0.5 nM preincubated for 1 hr followed by addition of VEGF measured after 72 hrs by MTT assay; type: functional; settings: Homo sapiens
[2] = Antiproliferative activity against VEGF-stimulated HUVEC cells assessed as reduction in cell viability at 2 nM preincubated for 1 hr followed by addition of VEGF measured after 72 hrs by MTT assay; type: functional; settings: Homo sapiens

Compound	inhibition at 0.0005 µM [1] [%]	inhibition at 0.002 µM [2] [%]
O=CNNC(=O)c1ccccc1Nc1ccc2c(/C=C/c3ccccn3)n[nH]c2c1	28	29
C=C(C)CNC(=O)c1ccccc1Nc1ccc2c(/C=C/c3ccccn3)n[nH]c2c1	65	110
C[C@H](CO)NC(=O)c1ccccc1Nc1ccc2c(/C=C/c3ccccn3)n[nH]c2c1	13	20
O=C(NCCc1ccncc1)c1ccccc1Nc1ccc2c(/C=C/c3ccccn3)n[nH]c2c1	18	22
O=C(NCCc1ccccn1)c1ccccc1Nc1ccc2c(/C=C/c3ccccn3)n[nH]c2c1	49	91
C[N+]12CC[C@@H]1C(NC(=O)c1ccccc1Nc1ccc3c(/C=C/c4ccccn4)n[nH]c3c1)C2 (stereo partly drawn)	15	-9
NC(=O)NNC(=O)c1ccccc1Nc1ccc2c(/C=C/c3ccccn3)n[nH]c2c1	19	5
O=C(NCCCN1CCOCC1)c1ccccc1Nc1ccc2c(/C=C/c3ccccn3)n[nH]c2c1	5	14
CC1CCCC(NC(=O)c2ccccc2Nc2ccc3c(/C=C/c4ccccn4)n[nH]c3c2)C1 (stereo not drawn)	69	59
O=C(NCC1CC1)c1ccccc1Nc1ccc2c(/C=C/c3ccccn3)n[nH]c2c1	25 to 35	53 to 69
N=C(N)CNC(=O)c1ccccc1Nc1ccc2c(/C=C/c3ccccn3)n[nH]c2c1	7	-1
O=C(Nn1cnnc1)c1ccccc1Nc1ccc2c(/C=C/c3ccccn3)n[nH]c2c1	17	13
CC(C)[C@H](CO)NC(=O)c1ccccc1Nc1ccc2c(/C=C/c3ccccn3)n[nH]c2c1	47	-4
O=C(NCC1CCC=CO1)c1ccccc1Nc1ccc2c(/C=C/c3ccccn3)n[nH]c2c1 (stereo not drawn)	37	16
CCCCCCCCNC(=O)c1ccccc1Nc1ccc2c(/C=C/c3ccccn3)n[nH]c2c1	26	16
CC(C)(C)OC(=O)NCCNC(=O)c1ccccc1Nc1ccc2c(/C=C/c3ccccn3)n[nH]c2c1	78	60
CC(C)C(C)NC(=O)c1ccccc1Nc1ccc2c(/C=C/c3ccccn3)n[nH]c2c1 (stereo not drawn)	19	55
CN1CCCC1CCNC(=O)c1ccccc1Nc1ccc2c(/C=C/c3ccccn3)n[nH]c2c1 (stereo not drawn)	30	23
O=C(O)CCNC(=O)c1ccccc1Nc1ccc2c(/C=C/c3ccccn3)n[nH]c2c1	4	20
O=C(NCCN1CCOCC1)c1ccccc1Nc1ccc2c(/C=C/c3ccccn3)n[nH]c2c1	28	22
CS(=O)(=O)NNC(=O)c1ccccc1Nc1ccc2c(/C=C/c3ccccn3)n[nH]c2c1	9	1
CN(NC(=O)c1ccccc1Nc1ccc2c(/C=C/c3ccccn3)n[nH]c2c1)c1ccccc1	16	37
O=C(NN1CCCC1)c1ccccc1Nc1ccc2c(/C=C/c3ccccn3)n[nH]c2c1	17	23
O=C(O)CNC(=O)c1ccccc1Nc1ccc2c(/C=C/c3ccccn3)n[nH]c2c1	8	23
CCCCCCC(C)NC(=O)c1ccccc1Nc1ccc2c(/C=C/c3ccccn3)n[nH]c2c1 (stereo not drawn)	35	63

Compound	inhibition at 0.0005 µM [1] [%]	inhibition at 0.002 µM [2] [%]
O=C(NCC(O)CO)c1ccccc1Nc1ccc2c(/C=C/c3ccccn3)n[nH]c2c1 (stereo not drawn)	22	20
NC(=O)C[C@@H](NC(=O)c1ccccc1Nc1ccc2c(/C=C/c3ccccn3)n[nH]c2c1)C(N)=O	21	15
O=C(NC1CCCCCCC1)c1ccccc1Nc1ccc2c(/C=C/c3ccccn3)n[nH]c2c1	14	60
CCn1nccc1NC(=O)c1ccccc1Nc1ccc2c(/C=C/c3ccccn3)n[nH]c2c1	26	2
CN(C)CCCCCCNC(=O)c1ccccc1Nc1ccc2c(/C=C/c3ccccn3)n[nH]c2c1	42	22
CN(CCCNC(=O)c1ccccc1Nc1ccc2c(/C=C/c3ccccn3)n[nH]c2c1)c1ccccc1	18	25
CN(C)NC(=O)c1ccccc1Nc1ccc2c(/C=C/c3ccccn3)n[nH]c2c1	31	20
NC(=O)[C@H]1CCCC[C@H]1NC(=O)c1ccccc1Nc1ccc2c(/C=C/c3ccccn3)n[nH]c2c1	21	39
O=C(NCCC1OCCO1)c1ccccc1Nc1ccc2c(/C=C/c3ccccn3)n[nH]c2c1	38	68
O=C(NC(CO)CO)c1ccccc1Nc1ccc2c(/C=C/c3ccccn3)n[nH]c2c1	48	8
CC1(C)CC(NC(=O)c2ccccc2Nc2ccc3c(/C=C/c4ccccn4)n[nH]c3c2)CC(C)(C)N1	35	10
O=C(NC1CCS(=O)(=O)C1)c1ccccc1Nc1ccc2c(/C=C/c3ccccn3)n[nH]c2c1 (stereo not drawn)	27	2
N#CCONC(=O)c1ccccc1Nc1ccc2c(/C=C/c3ccccn3)n[nH]c2c1	16	2
CC(C)(C(=O)NNC(=O)c1ccccc1Nc1ccc2c(/C=C/c3ccccn3)n[nH]c2c1)n1cncn1	34	90
NC(=O)CNC(=O)c1ccccc1Nc1ccc2c(/C=C/c3ccccn3)n[nH]c2c1	6	4
CCCCN(CC)CCNC(=O)c1ccccc1Nc1ccc2c(/C=C/c3ccccn3)n[nH]c2c1	2	6
O=C(NCc1cccc(F)c1)c1ccccc1Nc1ccc2c(/C=C/c3ccccn3)n[nH]c2c1	81	95
O=C(NOCC(=O)N1CCOCC1)c1ccccc1Nc1ccc2c(/C=C/c3ccccn3)n[nH]c2c1	15	-1
CCCCC(CC)CNC(=O)c1ccccc1Nc1ccc2c(/C=C/c3ccccn3)n[nH]c2c1 (stereo not drawn)	28	47
O=C(N[C@@H]1CCCC[C@@H]1O)c1ccccc1Nc1ccc2c(/C=C/c3ccccn3)n[nH]c2c1	26	59
CC(CO)NC(=O)c1ccccc1Nc1ccc2c(/C=C/c3ccccn3)n[nH]c2c1 (stereo not drawn)	19	28
CCCCCCNC(=O)c1ccccc1Nc1ccc2c(/C=C/c3ccccn3)n[nH]c2c1	21	90
CCN1CCCC1CNC(=O)c1ccccc1Nc1ccc2c(/C=C/c3ccccn3)n[nH]c2c1 (stereo not drawn)	18	5
O=C(NCCCN1CCCCCC1)c1ccccc1Nc1ccc2c(/C=C/c3ccccn3)n[nH]c2c1	25	-5
